Data taken from patent US20220170930A1, “METHOD FOR SCREENING COMPOUND FOR TREATING OR PREVENTING POLYQ-RELATED NEURODEGENERATIVE DISEASES” (FUDAN UNIVERSITY, priority 2019, published 2022).

Key:
[1] = target: T1, full-length mHTT (flHTT-Q73) (Homo sapiens, UniProt P42858, INS38QQQQQQQQQQQQQQQQQQQQQQQQQQQQQQQQQQQQQQQQQQQQQQQQQQQQ); assay: OI-RD affinity reaction parameters with flHTT-Q73; type: binding; conditions: OI-RD, flHTT-Q73
T1 construct: LC3B, full-length mHTT (flHTT-Q73) and full-length HTT-Q23 (flHTT-Q23); protein A (N, cleaved yes); made in house; host or cells: human embryonic kidney E293 cells
T1 sequence (P42858 with tags, fused parts or gaps with the stated changes): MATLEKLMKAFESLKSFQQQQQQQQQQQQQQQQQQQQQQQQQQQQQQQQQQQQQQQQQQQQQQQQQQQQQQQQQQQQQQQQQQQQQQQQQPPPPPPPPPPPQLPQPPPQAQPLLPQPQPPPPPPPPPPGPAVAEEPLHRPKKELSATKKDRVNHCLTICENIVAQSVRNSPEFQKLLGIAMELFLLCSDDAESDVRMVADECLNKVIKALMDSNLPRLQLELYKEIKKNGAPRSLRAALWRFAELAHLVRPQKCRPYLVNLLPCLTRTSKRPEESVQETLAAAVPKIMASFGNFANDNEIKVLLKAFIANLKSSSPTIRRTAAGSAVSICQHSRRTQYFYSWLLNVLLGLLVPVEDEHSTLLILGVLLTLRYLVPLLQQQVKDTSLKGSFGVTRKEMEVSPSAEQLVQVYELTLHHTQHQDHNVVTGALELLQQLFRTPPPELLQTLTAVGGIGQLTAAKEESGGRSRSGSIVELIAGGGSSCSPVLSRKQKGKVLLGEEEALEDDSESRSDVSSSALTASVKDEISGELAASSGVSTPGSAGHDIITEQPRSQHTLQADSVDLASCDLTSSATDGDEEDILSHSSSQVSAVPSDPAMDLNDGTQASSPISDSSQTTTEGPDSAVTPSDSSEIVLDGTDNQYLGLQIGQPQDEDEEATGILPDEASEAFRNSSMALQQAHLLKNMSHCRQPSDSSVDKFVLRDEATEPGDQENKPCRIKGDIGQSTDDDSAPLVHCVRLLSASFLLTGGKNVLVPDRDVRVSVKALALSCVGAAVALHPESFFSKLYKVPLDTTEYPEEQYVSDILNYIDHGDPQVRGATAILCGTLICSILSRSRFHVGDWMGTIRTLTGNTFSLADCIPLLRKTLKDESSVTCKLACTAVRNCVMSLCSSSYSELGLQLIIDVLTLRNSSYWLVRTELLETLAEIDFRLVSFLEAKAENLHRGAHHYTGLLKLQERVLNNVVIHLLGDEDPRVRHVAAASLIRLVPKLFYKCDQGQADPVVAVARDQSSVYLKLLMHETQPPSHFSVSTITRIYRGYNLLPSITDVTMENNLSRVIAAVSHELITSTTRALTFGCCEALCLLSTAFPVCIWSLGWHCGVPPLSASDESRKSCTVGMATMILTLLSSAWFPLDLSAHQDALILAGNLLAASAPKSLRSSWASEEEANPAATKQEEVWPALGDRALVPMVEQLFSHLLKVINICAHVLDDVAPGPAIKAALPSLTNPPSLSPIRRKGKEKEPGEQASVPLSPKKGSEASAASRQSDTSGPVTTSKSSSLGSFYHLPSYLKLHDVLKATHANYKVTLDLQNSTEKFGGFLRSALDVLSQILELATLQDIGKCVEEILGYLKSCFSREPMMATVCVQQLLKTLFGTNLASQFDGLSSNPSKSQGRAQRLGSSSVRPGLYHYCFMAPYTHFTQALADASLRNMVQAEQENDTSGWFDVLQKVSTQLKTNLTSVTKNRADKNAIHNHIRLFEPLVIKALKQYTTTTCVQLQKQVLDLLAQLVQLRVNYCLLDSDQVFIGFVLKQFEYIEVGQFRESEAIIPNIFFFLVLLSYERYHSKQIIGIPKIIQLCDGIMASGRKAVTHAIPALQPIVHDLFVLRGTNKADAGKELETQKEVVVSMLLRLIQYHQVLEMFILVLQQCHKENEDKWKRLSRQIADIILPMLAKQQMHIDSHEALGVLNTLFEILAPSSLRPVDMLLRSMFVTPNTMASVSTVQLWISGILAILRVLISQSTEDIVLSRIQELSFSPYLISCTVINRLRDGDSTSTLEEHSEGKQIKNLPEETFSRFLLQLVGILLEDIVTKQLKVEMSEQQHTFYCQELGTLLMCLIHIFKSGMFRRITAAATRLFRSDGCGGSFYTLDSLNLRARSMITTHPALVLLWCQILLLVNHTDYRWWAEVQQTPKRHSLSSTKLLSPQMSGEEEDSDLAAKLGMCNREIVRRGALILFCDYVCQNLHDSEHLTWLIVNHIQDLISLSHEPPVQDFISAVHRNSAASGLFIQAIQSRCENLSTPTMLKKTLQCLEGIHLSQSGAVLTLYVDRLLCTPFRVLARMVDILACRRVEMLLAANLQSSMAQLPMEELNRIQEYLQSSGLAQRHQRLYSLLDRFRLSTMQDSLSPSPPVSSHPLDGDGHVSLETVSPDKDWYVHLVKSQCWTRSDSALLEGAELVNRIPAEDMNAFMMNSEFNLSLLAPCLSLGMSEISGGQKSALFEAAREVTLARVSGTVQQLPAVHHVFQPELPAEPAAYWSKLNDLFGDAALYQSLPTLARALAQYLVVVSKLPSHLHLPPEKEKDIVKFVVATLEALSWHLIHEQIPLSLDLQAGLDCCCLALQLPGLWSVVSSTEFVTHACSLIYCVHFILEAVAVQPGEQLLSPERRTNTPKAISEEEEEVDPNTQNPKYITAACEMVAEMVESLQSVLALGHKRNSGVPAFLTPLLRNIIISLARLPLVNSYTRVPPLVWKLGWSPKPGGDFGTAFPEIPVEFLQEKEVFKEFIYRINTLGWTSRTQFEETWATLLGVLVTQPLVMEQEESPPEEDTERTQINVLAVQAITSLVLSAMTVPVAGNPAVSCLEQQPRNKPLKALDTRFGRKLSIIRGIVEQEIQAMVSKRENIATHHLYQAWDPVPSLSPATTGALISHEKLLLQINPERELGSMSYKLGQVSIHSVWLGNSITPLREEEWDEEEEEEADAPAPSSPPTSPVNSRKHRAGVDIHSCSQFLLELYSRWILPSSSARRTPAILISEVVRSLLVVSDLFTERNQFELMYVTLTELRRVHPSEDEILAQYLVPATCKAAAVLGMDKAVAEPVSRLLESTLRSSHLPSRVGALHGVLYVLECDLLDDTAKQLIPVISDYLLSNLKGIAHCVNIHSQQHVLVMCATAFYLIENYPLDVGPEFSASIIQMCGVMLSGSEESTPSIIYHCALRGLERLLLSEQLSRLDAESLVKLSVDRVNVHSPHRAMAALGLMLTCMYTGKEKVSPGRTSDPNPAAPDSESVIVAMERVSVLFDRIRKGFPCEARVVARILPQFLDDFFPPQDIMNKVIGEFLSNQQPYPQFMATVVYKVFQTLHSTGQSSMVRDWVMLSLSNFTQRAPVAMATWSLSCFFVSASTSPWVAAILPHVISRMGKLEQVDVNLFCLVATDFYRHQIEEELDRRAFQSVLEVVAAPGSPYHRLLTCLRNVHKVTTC
Excerpt: Each compound was printed in triplicates on the microarray. 01-RD was used to measure the affinity reaction parameters of the compound with LC3B, full-length mHTT (flHTT-Q73) and full-length HTT-Q23 (flHTT-Q23).

[2] = target: T2, binding between HTTexon1-Q72-MBP and LC3B (Homo sapiens, UniProt P42858+Q9GZQ8, INS38QQQQQQQQQQQQQQQQQQQQQQQQQQQQQQQQQQQQQQQQQQQQQQQQQQQ); assay: In vitro pull-down HTTexon1-Q72-MBP and LC3B; type: biochemical; conditions: 1 μM compound 1 or 100 nM compound 4
T2 construct: His8 (N, cleaved yes); GST (from pGEX-6P1) (N, cleaved yes); made in house; LC3B: E. coli BL21(DE3)pLsyS
T2 sequence (P42858 other isoform, or with tags, fused parts or gaps with the stated changes): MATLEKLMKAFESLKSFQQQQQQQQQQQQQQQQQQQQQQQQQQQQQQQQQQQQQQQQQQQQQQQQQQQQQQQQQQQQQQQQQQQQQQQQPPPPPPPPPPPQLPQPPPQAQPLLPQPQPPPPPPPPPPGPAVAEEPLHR
Description: Incubation was conducted. Then the unbound proteins were removed.
(3) The resin-bound proteins were eluted and analyzed by SDS-PAGE and Western-blots with anti-LC3 antibody (FIG. 22a).

[3] = target: T3, MBP-ATXN3-Q28 (Homo sapiens, UniProt P54252, INS305QQQQQQQQQQQQQQQQQQ); assay: OI-RD affinity screening with MBP-ATXN3-Q28; type: binding; conditions: OI-RD difference images
T3 construct: His8 with TEV protease cleavage site; made in house; host or cells: Escherichia coli Rosetta(DE3)pLsyS
T3 sequence (P54252 with tags, fused parts or gaps isoform P54252-4 with the stated changes): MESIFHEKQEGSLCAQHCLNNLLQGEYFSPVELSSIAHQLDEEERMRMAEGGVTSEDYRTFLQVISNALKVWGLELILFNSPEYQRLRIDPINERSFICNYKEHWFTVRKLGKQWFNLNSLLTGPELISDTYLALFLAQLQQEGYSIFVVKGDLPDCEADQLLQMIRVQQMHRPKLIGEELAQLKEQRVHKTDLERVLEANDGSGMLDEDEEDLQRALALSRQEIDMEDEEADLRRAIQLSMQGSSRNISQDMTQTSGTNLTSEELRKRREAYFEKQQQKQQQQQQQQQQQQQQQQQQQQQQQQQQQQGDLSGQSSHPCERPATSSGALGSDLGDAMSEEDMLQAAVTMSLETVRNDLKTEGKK
Description: Screening was conducted using a method similar to 1.1, except for that the target protein HTTexon1-Q72-MBP in step (1) of 1.1 was replaced with MBP-ATXN3-Q68 and the target protein HTTexon1-Q25-MBP in step (2) of 1.1 was replaced with MBP-ATXN3-Q28, to obtain compounds that can selectively bind to ATXN3 with abnormally expanded polyQ (MBP-ATXN3-Q68).

`O=C1Nc2ccc(I)cc2/C1=C/c1cc(Br)c(O)c(Br)c1` [compound 1, GW5074] gave a Koff [1] of 0.000133 s⁻¹, a Kon [1] of 5.43e-05 min/nM and a Kd ([1]; read-out: Kd) of 0.0147 µM. For the same compound, the “binding between HTTexon1-Q72-MBP and LC3B” value [2] was “could enhance the binding” and the “binding to MBP-ATXN3-Q28” value [3] was “did not bind”.
